We go through three molecules from patent US20090221640A1, “Novel Crystal Modifications” (ASTRAZENECA AB, priority 2006, published 2009).

Some results are limits rather than exact numbers.

The target of data set [1] is MMP12 (Homo sapiens, UniProt P39900). To be noted: background statement, compound of WO 02/074767; cited from earlier work.
Data set [2] is described as follows: Relative thermodynamic stability in suspension experiments (XRPD on precipitates). The format is physicochemical.
Data set [3] can be described thus: Humidity sorption by gravimetrical vapour sorption (GVS). It is filed as physicochemical. As for the experimental part:
The gravimetric responses of test samples to changes in humidity were investigated using either a SGA 100 (VTI Corporation) or a DVS 2 (Surface Measurement System) Gravimetrical Vapour Sorption (GVS) instrument with the following features: Dry to 90% RH and back in steps of, for example, 10% RH.
Equilibrium condition: <0.01 weight-% per 10 minutes (<0.001 weight-%/min)
Approximately 5 mg of the test sample was placed in the cup and evaluated.

Data set [4] in a line: Solid-state storage stability (chemical and physical). It is filed as physicochemical. To be noted: 25° C./desiccated; 25° C./60% RH; 40° C./75% RH; examined after 2, 4, 8 and 12 weeks. As for the experimental part: The solid-state stability of compound (I) Form G was studied under three sets of conditions: at 25° C./desiccated; at 25° C./60% RH; and at 40° C./75% RH. Samples were examined after 2, 4, 8 and 12 weeks and chemical and physical stability was evaluated.

Data set [5] can be described thus: Thermal behaviour on heating (DSC and TGA). It is filed as physicochemical. To be noted: below 200° C.; neither solvent loss nor any other thermal event prior to melting. As for the experimental part: The calorimetric response of a test sample to increasing temperature was investigated using a Q1000 Modulated Temperature Differential Scanning Calorimeter (MTDSC) (TA Instruments) using different methods, the main features being:
Normally modulated mode (“heat only”) with a ramp rate of 5° C./min (but also 1 and 20° C./min were used without modulation). The temperature range was from just below ambient to above 200° C.
Approximately 2 mg of the test sample was placed in an aluminium cups with a lid (no crimping).
The gravimetric response of test samples to increasing temperatures was investigated using a Q500 Thermal Gravimetric Analyser (TGA) (TA Instruments) using the following parameters:
Heating rate (normally): 5° C./min
Approximately 2 to 5 mg of the test sample was placed in the cup and heated to just above 200° C.

Chain of MMP12 (P39900 106-470): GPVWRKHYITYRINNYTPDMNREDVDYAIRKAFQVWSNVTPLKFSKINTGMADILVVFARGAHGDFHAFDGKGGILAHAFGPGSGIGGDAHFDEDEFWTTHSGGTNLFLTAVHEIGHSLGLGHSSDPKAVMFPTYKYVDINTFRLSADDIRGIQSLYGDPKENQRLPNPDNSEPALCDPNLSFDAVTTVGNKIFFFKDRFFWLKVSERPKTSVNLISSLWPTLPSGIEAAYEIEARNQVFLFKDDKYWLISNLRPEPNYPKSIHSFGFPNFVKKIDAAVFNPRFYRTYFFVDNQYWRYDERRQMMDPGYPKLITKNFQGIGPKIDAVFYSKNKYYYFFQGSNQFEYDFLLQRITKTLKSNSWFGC

Turning to `C[C@]1(CS(=O)(=O)N2CCC(Oc3ccc(Cl)cn3)CC2)NC(=O)NC1=O` [Compound (I), (5S)-5-[4-(5-chloro-pyridin-2-yloxy)-piperidine-1-sulfonylmethyl]-5-methyl-imidazolidine-2,4-dione], the “MMP12 inhibition (in words)” value in data set [1] is reported as “potent inhibitor of MMP12”.

For `C[C@]1(CS(=O)(=O)N2CCC(Oc3ccc(Cl)cn3)CC2)NC(=O)NC1=O` [Form A, (5S)-5-[4-(5-chloro-pyridin-2-yloxy)-piperidine-1-sulfonylmethyl]-5-methyl-imidazolidine-2,4-dione], in data set [2] (suspensions in organic solvents (ethanol, methanol, 1-propanol, 2-propanol, acetone or ethyl acetate)), the “conversion of crystal form in suspension (XRPD)” value was “complete conversion into Form G”.

Turning to `C[C@]1(CS(=O)(=O)N2CCC(Oc3ccc(Cl)cn3)CC2)NC(=O)NC1=O` [compound (I) Form G, (S)-5-[4-(5-Chloro-pyridin-2-yloxy)-piperidine-1-sulfonylmethyl]-5-methyl-imidazolidine-2,4-dione Form G], the humidity uptake in data set [3] (at 80% RH, GVS) is reported as < 0.05%. Further, the hygroscopicity classification entry in data set [3] (criteria defined in the European Pharmacopoeia) is “non-hygroscopic”. The “relative thermodynamic stability among the seven crystalline modifications” value in data set [2] (temperature range investigated (5 to 40° C.)) is on record as “thermodynamically most stable”. The “solid-state chemical and physical stability” value in data set [4] was “chemically and physically stable”. Besides, the “thermal stability (DSC and TGA traces)” value in data set [5] is listed as “thermally stable”.
